Measurements as given in patent US20190209515A1, “Treatment of Bladder Cancer by Intratumoral Injection of Taxane Particles” (CRITITECH, INC., priority 2018, published 2019).
Values joined by “and” are separate entries in the source; they are usually repeats but may differ in a detail not shown here. Identical values can stand only once. “Also recorded” adds a separate entry of the source. Marks after values point to notes of the source that are not given here.

Columns and labels:
[1] = IV docetaxel 3 cycles, of 7 tumors measured, day of death or euthanasia
[2] = mouse, in vivo, iv
Description: (§1) Tumor volume was determined with calipers. […] Animals were weighed 2×/week.

[3] = test system: UM-UC-3 bladder cancer cell line (ATCC-CRL-1749) tumors; assay: UM-UC-3 xenograft study, H&E histology and immunohistochemistry of tumor site tissue; assay type: in vivo, mouse
[4] = test system: UM-UC-3 bladder cancer cell line (ATCC-CRL-1749) tumors; assay: Human bladder cancer (UM-UC-3) mouse xenograft study, tumor volume; assay type: in vivo
Description: as §1
At day 18 after tumor implant, when average tumor size was between 50-325 mm^3, animals were sorted into five groups with equal average tumor sizes and were treated as shown in Table 8 below.
The second treatments (2nd cycle) occurred 7 days following first treatment (1st cycle) and third treatments (3rd cycle) occurred 14 days following the first treatment. The docetaxel solution IV was administered via the tail vein.
Vehicle (Control): Diluted 1 ml of the 1% Polysorbate 80/8% Ethanol in normal saline (0.9% Sodium Chloride for Injection) reconstitution solution with 1.5 mL of normal saline (0.9% Sodium Chloride for Injection, USP). […] Vigorously hand shook the vial with inversions for 1 minute. […] Allowed the suspension to sit undisturbed for at least 5 minutes to reduce entrapped air and foam. […] Vortexed to mix.
Tumor volumes were determined 2×/week for the duration of the study (61 days).

[5] = Docetaxel dissolution study, methanol/water 15/85, USP Apparatus II; assay type: physicochemical; conditions: methanol/water 15/85 (v/v), 37° C., pH 7, USP Apparatus II 75 rpm
Description: The procedures used to determine the dissolution rates are as follows. […] Beads were transferred to a stainless steel mesh container and placed in the dissolution bath containing methanol/water 50/50 (v/v) media at 37° C., pH 7, and a USP Apparatus II (Paddle), operating at 75 rpm. At 10, 20, 30, 60, and 90 minutes, a 5 mL aliquot was removed, filtered through a 0.22 μm filter and analyzed on a UV/VIS spectrophotometer at 227 nm. Absorbance values of the samples were compared to those of standard solutions prepared in dissolution media to determine the amount of material dissolved. […] At 5, 15, 30, 60, 120 and 225 minutes, a 5 mL aliquot was removed, filtered through a 0.22 μm filter, and analyzed on a UV/VIS spectrophotometer at 232 nm. Absorbance values of the samples were compared to those of standard solutions prepared in dissolution media to determine the amount of material dissolved.
At 5, 15, 30, 60, 120 and 225 minutes, a 5 mL aliquot was removed, filtered through a 0.22 μm filter, and analyzed on a UV/VIS spectrophotometer at 232 nm. Absorbance values of the samples were compared to those of standard solutions prepared in dissolution media to determine the amount of material dissolved.

[6] = Paclitaxel dissolution study, methanol/water 50/50, USP Apparatus II; assay type: physicochemical; conditions: methanol/water 50/50 (v/v), 37° C., pH 7, USP Apparatus II 75 rpm
Description: Beads were transferred to a stainless steel mesh container and placed in the dissolution bath containing methanol/water 50/50 (v/v) media at 37° C., pH 7, and a USP Apparatus II (Paddle), operating at 75 rpm. […] Absorbance values of the samples were compared to those of standard solutions prepared in dissolution media to determine the amount of material dissolved. […] Absorbance values of the samples were compared to those of standard solutions prepared in dissolution media to determine the amount of material dissolved.
Beads were transferred to a stainless steel mesh container and placed in the dissolution bath containing methanol/water 50/50 (v/v) media at 37° C., pH 7, and a USP Apparatus II (Paddle), operating at 75 rpm. […] Absorbance values of the samples were compared to those of standard solutions prepared in dissolution media to determine the amount of material dissolved.

[7] = Particle size analysis (light obscuration / laser diffraction); assay type: physicochemical
Description: Particle size was analyzed by both light obscuration and laser diffraction methods. An Particle Sizing Systems AccuSizer 780 SIS system was used for the light obscuration method and Shimadzu SALD-7101 was used for the laser diffraction method.
The vials were vortexed for approximately 10 seconds and then sonicated in a sonic bath approximately 1 minute.
The vial was vortexed for approximately 10 seconds and then sonicated in a sonic bath for approximately 2 minutes. This suspension was used for laser diffraction analysis. Unused suspension was poured into a 125 mL particle-free plastic bottle, which was then filled to approximately 100 mL with filtered dispersant. The suspension was vortex for approximately 10 seconds and then sonicated in the sonic bath for approximately 2 minutes. This diluted suspension was used for light obscuration analysis.
A background test was first performed prior to analyzing particles on the AccuSizer 780 SIS. A new particle-free plastic bottle was filled with blank suspension solution by pumping from a reservoir, using a peristaltic pump, through a 0.22 μm Millipore filter and into the bottle. A background analysis was run to ensure the particle/mL count was below 100 particles/mL. […] Once the analysis was completed, the background data was removed and any measurement with less than four counts was removed. […]

[8] = BET specific surface area analysis; assay type: physicochemical
Description: As used herein, the “specific surface area” (SSA) is the total surface area of the taxane particle per unit of taxane mass as measured by the Brunauer-Emmett-Teller (“BET”) isotherm by the following method: a known mass between 200 and 300 mg of the analyte is added to a 30 mL sample tube. […] The automated test is then carried out using the BETWIN® software package and the surface area of each sample is subsequently calculated. As will be understood by those of skill in the art, the “taxane particles” can include both agglomerated taxane particles and non-agglomerated taxane particles; since the SSA is determined on a per gram basis it takes into account both the larger agglomerated and smaller non-agglomerated taxane particles in the composition. The agglomerated taxane particles are defined herein as individual taxane particles that are formed by the agglomeration of smaller particles which fuse together forming the larger individual taxane particles, all of which occurs during the processing of the taxane particles. […]
A known mass between 200 and 300 mg of the analyte was added to a 30 mL sample tube. […] The automated test was then carried out using the BETWIN® software package and the surface area of each sample was subsequently calculated.

[9] = not told, pH 4
Description: Receptor Fluid: The receptor fluid consisted of 60 vol %/40 vol % methanol/water at pH 4 with 0.01 wt % NaN3 (added as a preservative). […] After mixing and degassing the Receptor Fluid it was filtered through a ZapCap CR 0.2 μm membrane under vacuum; the Receptor Fluid, so filtered, was stirred for an additional 20 minutes under vacuum.

[10] = IV Docetaxel 3 cycles, 2 animals
[11] = IV Docetaxel 3 cycles, individual animals

docetaxel
tumors with docetaxel levels above the limit of quantitation (1 ng/g) [1]: 1 | initial animal weight loss [2]: generally greater | signs of peripheral neuropathy [2]: greater signs of peripheral neuropathy | general histological observations (H&E) ([3]; Docetaxel solution IV 3 cycles): many viable appearing tumor masses with some macrophage and occasional lymphocytic response along with some tumor necrosis | Maximum size of viable invasive carcinoma on the slide >10 mm, number of animals [3, 10]: 2* | Percentage of tumor showing necrosis 11-50%, number of animals [3, 10]: 1 | Percentage of tumor showing necrosis 50-90%, number of animals [3, 10]: 1 | Macrophage infiltrate density Mild, number of animals ([3]; IV Docetaxel 3 cycles, 2 animals, H&E and CD68): 2 | Maximum tumor size on slide [3, 11]: 11 mm and 15 mm | tumor volume ([4]; Docetaxel solution 30 mg/kg IV, 3 weekly cycles, to Day 61 post implant): subsequently increased; also recorded: somewhat effective at treating small tumors, but not very effective in treating large tumors | Necropsy volume [4, 11]: 2872 mm^3 and 1652 mm^3

CC(=O)O[C@@]12CO[C@@H]1C[C@H](O)[C@@]1(C)C(=O)[C@H](O)C3=C(C)[C@@H](OC(=O)[C@H](O)[C@@H](NC(=O)OC(C)(C)C)c4ccccc4)C[C@@](O)([C@@H](OC(=O)c4ccccc4)[C@H]21)C3(C)C [Docetaxel Raw Material, docetaxel]
Dissolution (30 min) [5]: 11%

CC(=O)O[C@H]1C(=O)[C@@]2(C)[C@H]([C@H](OC(=O)c3ccccc3)[C@]3(O)C[C@H](OC(=O)[C@H](O)[C@@H](NC(=O)c4ccccc4)c4ccccc4)C(C)=C1C3(C)C)[C@]1(OC(C)=O)CO[C@@H]1C[C@@H]2O [Paclitaxel Raw Material, paclitaxel]
Dissolution (30 min) [6]: 18% | Number Mean [7]: 1.16 um | Surface Area [8]: 10.4 m^2/g

CC(=O)O[C@H]1C(=O)[C@@]2(C)[C@H]([C@H](OC(=O)c3ccccc3)[C@]3(O)C[C@H](OC(=O)[C@H](O)[C@@H](NC(=O)c4ccccc4)c4ccccc4)C(C)=C1C3(C)C)[C@]1(OC(C)=O)CO[C@@H]1C[C@@H]2O [paclitaxel]
solubility in the Receptor Fluid [9]: sufficient to maintain sink conditions
